Measured values from patent publication US20070179060A1, “6-(Poly-substituted aryl)-4-aminopicolinates and their use as herbicides” (priority 2006, published 2007).
Each block holds one molecule with its values, some of them ahead of it.

Experiments:
[1] = tested on: Triticum aestivum (spring wheat); assay: Postemergence herbicidal activity of mixtures in cereal crops; assay type: in vivo; details: after 3 weeks
Procedure: (§1) Seeds of the desired test plant species were planted and reared as described in “Evaluation of Postemergence Herbicidal Safening in Cereal Crops” (section 37).
(§2) Treatments consisted of compound (as listed in Tables 6 and 7), fluroxypyr methylheptyl ester (MHE), and clopyralid monoethanolamine (MEA) salt alone and in combination. Weighed amounts were placed in 25 mL glass vials and dissolved in a volume of 97:3 v/v acetone/DMSO to obtain 4.5 mg ai/mL stock solutions. […] The concentrated stock solutions were diluted to 1.5 mg ai/mL with the addition of 2 volumes of an aqueous mixture containing acetone, water, isopropyl alcohol, DMSO, Agri-dex crop oil concentrate, and Triton® X-77 surfactant in a 64.7:26.0:6.7:2.0:0.7:0.01 v/v ratio. A dilution solution was prepared by mixing 1 volume of 97:3 v/v acetone/DMSO and 2 volumes of an aqueous mixture containing acetone, water, isopropyl alcohol, DMSO, Agri-dex crop oil concentrate, and Triton® X-77 surfactant in a 64.7:26.0:6.7:2.0:0.7:0.01 v/v ratio. Compound requirements are based upon a 12 mL application volume at a rate of 187 L/ha. Spray solutions of fluroxypyr MHE, clopyralid MEA, and experimental compound mixtures were prepared by adding the stock solutions to the appropriate amount of dilution solution to form 12 mL spray solution with active ingredients in two- and three-way combinations. Formulated compounds were applied to the plant material with an overhead Mandel track sprayer equipped with a 8002E nozzles calibrated to deliver 187 L/ha over an application area of 0.503 square meters at a spray height of 18 inches (43 cm) above average plant canope. Control plants were sprayed in the same manner with the solvent blank.
(§3) The treated plants and control plants were placed in a greenhouse as described above and watered by sub-irrigation to prevent wash-off of the test compounds. After 3 weeks the condition of the test plants as compared with that of the control plants was determined visually and scored on a scale of 0 to 100 percent where 0 corresponds to no injury and 100 corresponds to complete kill.
(§4) Colby's equation was used to determine the herbicidal effects expected from the mixtures (Colby, S. R. 1967. Calculation of the synergistic and antagonistic response of herbicide combinations. Weeds 15:20-22.).
(§5) The following equation was used to calculate the expected activity of mixtures containing two active ingredients, A and B: Expected=A+B−(A×B/100) • A=observed efficacy of active ingredient A at the same concentration as used in the mixture. • B=observed efficacy of active ingredient B at the same concentration as used in the mixture.
(§6) The following equation was used to calculate the expected activity of mixtures containing three active ingredients, A, B, and C: Expected=A+B+C−(A×B+B×C+A×C)/100+(A×B×C)/10000 • A=observed efficacy of active ingredient A at the same concentration as used in the mixture. • B=observed efficacy of active ingredient B at the same concentration as used in the mixture. • C=observed efficacy of active ingredient C at the same concentration as used in the mixture.

[2] = tested on: Matricaria chamomilla; assay: as above; assay type: in vivo; details: after 3 weeks
Procedure: as §1, §2, §3, §4, §5, §6

[3] = tested on: Hordeum vulgare (winter barley); assay: as above; assay type: in vivo; details: after 3 weeks
Procedure: as §1, §2, §3, §4, §5, §6

[4] = tested on: Monochoria vaginalis; assay: Herbicidal activity in transplanted paddy rice; assay type: in vivo; details: Pontederia vaginalis, 504 h, paddy water application, after 3 weeks, read-out: % Control MOOVA
Procedure: (§7) Weed seeds or nutlets of the desired test plant species were planted in puddled soil (mud) prepared by mixing a non-sterilized mineral soil (28 percent silt, 18 percent clay, and 54 percent sand, with a pH of about 7.3 to 7.8 and an organic matter content of about 1.0 percent) and water at a ratio of 100 kg of soil to 19 L of water. The prepared mud was dispensed in 250 mL aliquots into 480 mL non-perforated plastic pots with a surface area of 91.6 square centimeters leaving a headspace of 3 centimeters in each pot. […] Seedlings at the second or third leaf stage of growth were transplanted into 650 mL of mud contained in 960 mL non-perforated plastic pots with a surface area of 91.6 square centimeters 4 days prior to herbicide application. The paddy was created by filling the 3 centimeter headspace of the pots with water. When required to ensure good germination and healthy plants, a fungicide treatment and/or other chemical or physical treatment was applied. The plants were grown for 4-14 days in a greenhouse with an approximate 14 hour photoperiod which was maintained at about 29° C. during the day and 26° C. during the night. Nutrients were added as Osmocote (17:6:10, N:P:K+minor nutrients) at 2 g per pot. Water was added on a regular basis to maintain the paddy flood, and supplemental lighting was provided with overhead metal halide 1000-Watt lamps as necessary. The plants were employed for testing when they reached the second or third true leaf stage. A weighed amount, determined by the highest rate to be tested, of each test compound was placed in a 120 mL glass vial and was dissolved in 20 mL of acetone to obtain concentrated stock solutions. […] Application rates of ½×, ¼×, ⅛× and 1/16× of the high rate were obtained by injecting an appropriate amount of the stock solution into the aqueous layer of the paddy. Control plants were treated in the same manner with the solvent blank. The treated plants and control plants were placed in a greenhouse as described above and water was added as needed to maintain a paddy flood.

[5] = tested on: Echinochloa crus-galli; assay: Herbicidal activity in transplanted paddy rice; assay type: in vivo; details: Echinochloa crus-galli, 504 h, paddy water application, after 3 weeks, read-out: % Control ECHCG
Procedure: as §7

[6] = tested on: Cyperus difformis; assay: Herbicidal activity in transplanted paddy rice; assay type: in vivo; details: Cyperus difformis, 504 h, paddy water application, after 3 weeks, read-out: % Control CYPDI
Procedure: as §7

[7] = tested on: Scirpus juncoides; assay: Herbicidal activity in transplanted paddy rice; assay type: in vivo; details: Schoenoplectiella juncoides, 504 h, paddy water application, after 3 weeks, read-out: % Control SCPJU
Procedure: as §7

[8] = tested on: rice (Orysa sativa var. Japonica); assay: Herbicidal activity in transplanted paddy rice; assay type: in vivo; details: Oryza sativa, 504 h, transplant rice (crop), paddy water application, after 3 weeks
Procedure: as §7

[9] = tested on: lambsquarter (Chenopodium album); assay: Postemergence herbicidal activity; assay type: in vivo; details: post-emergent, 140 g ai/ha, after 14 days
Outline: (§8)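 Plants grown 7-21 days in greenhouse (about 15 h photoperiod, 23-29° C day, 22-28° C night) to first or second true leaf stage. Compounds in acetone/water/isopropanol/DMSO carrier with crop oil concentrate and Triton X-155 sprayed overhead at 187 L/ha; controls received solvent blank. Plants sub-irrigated afterwards; dose responses analysed by probit analysis.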

[10] = tested on: velvetleaf (Abutilon theophrasti); assay: Postemergence herbicidal activity; assay type: in vivo; details: post-emergent, 140 g ai/ha, after 14 days
Outline: as §8

[11] = tested on: redroot pigweed (Amaranthus retroflexus); assay: Postemergence herbicidal activity; assay type: in vivo; details: post-emergent, 140 g ai/ha, after 14 days
Outline: as §8

[12] = tested on: wheat (Triticum aestivum); assay: Postemergence herbicidal activity in cereal crops; assay type: in vivo; details: crop, post-emergent, 17.5 g ai/ha, after 20-22 days
Outline: (§9)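 Greenhouse plants at the second or third true leaf stage are sprayed postemergence by track sprayer delivering 187 L/ha. Spray solution is an acetone/water/isopropanol/DMSO mixture with crop oil concentrate and Triton X-77. Treated plants are kept at about 18 °C day/17 °C night under a ~14 h photoperiod with sub-irrigation; blank-sprayed plants serve as controls.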

[13] = tested on: Papaver rhoeas; assay: Postemergence herbicidal activity in cereal crops; assay type: in vivo; details: post-emergent, 17.5 g ai/ha, after 20-22 days
Outline: as §9

[14] = tested on: Galium aparine; assay: Postemergence herbicidal activity in cereal crops; assay type: in vivo; details: post-emergent, 17.5 g ai/ha, after 20-22 days
Outline: as §9

[15] = tested on: Lamium purpureum; assay: Postemergence herbicidal activity in cereal crops; assay type: in vivo; details: post-emergent, 17.5 g ai/ha, after 20-22 days
Outline: as §9

[16] = tested on: Veronica persica; assay: Postemergence herbicidal activity in cereal crops; assay type: in vivo; details: post-emergent, 17.5 g ai/ha, after 20-22 days
Outline: as §9

[17] = tested on: barley (Hordeum vulare); assay: Postemergence herbicidal activity in cereal crops; assay type: in vivo; details: crop, post-emergent, 17.5 g ai/ha, after 20-22 days
Outline: as §9

[18] = Table 6, applied alone, 35 g ai/ha
[19] = Table 7, applied alone, 35 g ai/ha
[20] = Table 7, applied alone, 70 g ai/ha

Compound: CCCCCCC(C)OC(=O)COc1nc(F)c(Cl)c(N)c1Cl (stereo not drawn) [Fluroxypyr MHE, fluroxypyr methylheptyl ester]
% Control TRZAS Ob [1, 18]: 0%
% Control TRZAS Ob [1, 19]: 0%
% Control TRZAS Ob [1, 20]: 0%
% Control MATCH Ob [2, 18]: 0%
% Control MATCH Ob [2, 19]: 0%
% Control MATCH Ob [2, 20]: 0%
% Control HORVW Ob [3, 18]: 0%
% Control HORVW Ob [3, 19]: 0%
% Control HORVW Ob [3, 20]: 0%

melting point: 120 to 121 °C
Compound: CCN(CC)c1c(Cl)ccc(-c2cc(N)c(Cl)c(C(=O)OC)n2)c1F [Compound 17, 4-Amino-3-chloro-6-[4-chloro-3-(diethylamino)-2-fluorophenyl]pyridine-2-carboxylic acid, methyl ester]
pest or weed control at 35 g/ha ([4]; 35 g ai/ha): 100%
pest or weed control at 35 g/ha ([5]; 35 g ai/ha): 70%
pest or weed control at 35 g/ha ([6]; 35 g ai/ha): 100%
pest or weed control at 35 g/ha ([7]; 35 g ai/ha): 90%
pest or weed control at 35 g/ha ([8]; 35 g ai/ha): 0%
pest or weed control at 140 g/ha ([9]; Chenopodium album, post-emergence, 336 h, read-out: % Control CHEAL): 100%
pest or weed control at 140 g/ha ([10]; Abutilon theophrasti, post-emergence, 336 h, read-out: % Control ABUTH): 100%
pest or weed control at 140 g/ha ([11]; Amaranthus retroflexus, post-emergence, 336 h, read-out: % Control AMARE): 100%
plant injury at 17.5 g/ha ([12]; Triticum aestivum, post-emergence, 480 h, read-out: % Control TRZAS): 0%
pest or weed control at 17.5 g/ha ([13]; Papaver rhoeas, post-emergence, 480 h, read-out: % Control PAPRH): 100%
pest or weed control at 17.5 g/ha ([14]; Galium aparine, post-emergence, 480 h, read-out: % Control GALAP): 80%
pest or weed control at 17.5 g/ha ([15]; Lamium purpureum, post-emergence, 480 h, read-out: % Control LAMPU): 100%
pest or weed control at 17.5 g/ha ([16]; Veronica persica, post-emergence, 480 h, read-out: % Control VERPE): 99%
pest or weed control at 17.5 g/ha ([17]; Hordeum, post-emergence, 480 h, read-out: % Control HORVS): 0%

Compound: NCCO.O=C(O)c1nc(Cl)ccc1Cl [Clopyralid MEA, clopyralid monoethanolamine (MEA) salt]
% Control TRZAS Ob [1, 18]: 0%
% Control TRZAS Ob [1, 19]: 0%
% Control TRZAS Ob [1, 20]: 0%
% Control MATCH Ob [2, 18]: 20%
% Control MATCH Ob [2, 19]: 5%
% Control MATCH Ob [2, 20]: 40%
% Control HORVW Ob [3, 18]: 0%
% Control HORVW Ob [3, 19]: 0%
% Control HORVW Ob [3, 20]: 0%

Compound: CCCCOCCOC(=O)c1nc(-c2ccc(Cl)c(OC)c2F)cc(N)c1Cl [Compound 92, 4-Amino-3-chloro-6-(4-chloro-2-fluoro-3-methoxyphenyl)pyridine-2-carboxylic acid, 2-butoxy-ethyl ester]
pest or weed control at 17.5 g/ha ([4]; 17.5 g ai/ha): 100%
pest or weed control at 17.5 g/ha ([5]; 17.5 g ai/ha): 40%
pest or weed control at 17.5 g/ha ([6]; 17.5 g ai/ha): 99%
pest or weed control at 17.5 g/ha ([7]; 17.5 g ai/ha): 90%
pest or weed control at 17.5 g/ha ([8]; 17.5 g ai/ha): 0%
% Control CHEAL [9]: 100%
% Control ABUTH [10]: 100%
% Control AMARE [11]: 100%
melting point: 72 to 74 °C
% Control TRZAS [12]: 0%
% Control PAPRH [13]: 95%
% Control GALAP [14]: 99%
% Control LAMPU [15]: 100%
% Control VERPE [16]: 30%
% Control HORVS [17]: 0%
